Settings: 298.15 K

O=[N+]([O-])c1cccc2ccccc12
Settings | solubility (mole fraction)
in 2-ethylhexanol | 0.0411
in 2-methyl-1-butanol | 0.0297
in 2-methyl-1-pentanol | 0.0367
in 2-pentanol | 0.0324
in 4-methyl-2-pentanol | 0.0311
in MTBE | 0.214
in acetonitrile | 0.328
in benzene | 0.423
in butyronitrile | 0.383
in cyclohexane | 0.025
in cyclooctane | 0.036
in cyclopentanol | 0.0599
in dibutyl ether | 0.0996
in diethyl ether | 0.237
in diisopropyl ether | 0.104
in ethanol | 0.0277
in ethylene glycol | 0.00463
in isobutanol | 0.0173
in isooctane | 0.0163
in isopentanol | 0.032
in isopropanol | 0.0213
in methylcyclohexane | 0.0277
in n-butanol | 0.0348
in n-decane | 0.0274
in n-decanol | 0.0666
in n-heptane | 0.0198
in n-heptanol | 0.0539
in n-hexadecane | 0.0394
in n-hexane | 0.0174
in n-hexanol | 0.0493
in n-nonane | 0.0252
in n-octane | 0.0223
in n-octanol | 0.0593
in n-pentanol | 0.0424
in n-propanol | 0.0295
in propionitrile | 0.37
in sec-butanol | 0.0331
in tert-butanol | 0.0228
in tert-butylcyclohexane | 0.0303
in toluene | 0.421
in undecane | 0.0293

— BigSolDB 2.1
